Reference: article PMC6411751, “Use of machine learning to identify novel, behaviorally active antagonists of the insect odorant receptor co-receptor (Orco) subunit” (Scientific Reports, 2019)
Where a name gives a salt, the structure may show the parent alone.

Legend:
Cqui\Or21 + Cqui\Orco = assay: Inhibition of heteromeric OR in oocytes (3-methylindole or OLC12 activation); format: cell-based, Culex quinquefasciatus; details: 100 µM antagonist; for inhibition of odorant activation: 30 nM 3-methylindole; for antagonism of OLC12 (Orco agonist) activation of heteromeric OR: 3 µM OLC12
Protocol: (§1) An automated parallel electrophysiology system (OpusExpress 6000 A, Molecular Devices) was used to record Orco agonist (OLC12) or odorant induced currents under two-electrode voltage clamp. Oocytes were perfused with ND96 (in mM: 96 NaCl, 2 KCl, 1 CaCl2, 1 MgCl2, 5 HEPES, pH 7.4). DMSO was used to prepare 1 M or 100 mM stock solutions of test compounds, which were then diluted in ND96 on the day of the experiment. Compounds were applied at a flow rate of 1.0 mL/min, with extensive washing in ND96 at 4.6 mL/min between applications. Micropipettes with resistances of 0.2–2.0 MΩ were filled with 3 M KCl. The holding potential was −70 mV. Current responses were filtered (4-pole, Bessel, low pass) at 20 Hz (−3 db) and sampled at 100 Hz. OpusXpress 1.1 software (Molecular Devices) was used to capture and store current responses.
(§2) To measure the ability of Orco antagonists to inhibit odorant activation, oocytes expressing heteromeric ORs (Orco + ORX) were exposed to a 30 sec application of odorant followed by a 20 min wash. Oocytes were then exposed to a 90 sec application of Orco antagonist, immediately followed by a 30 sec co-application of Orco antagonist and odorant. The current response to odorant in the presence of Orco antagonist was compared to the preceding response to odorant alone and represented as a percentage. This value was then normalized to the value obtained when the assay was run in the absence of antagonist (sham).
(§3) Figure S3. Effects of Orco antagonists on heteromeric ORs. […]
(§4) heteromeric complexes of odorant specificity subunits and Orco. The Orco antagonists tested were 3-isopropyl-6-methyl-catechol (3 I6 MC), a potent compound from the input training set, and two compounds id e ntified in Fig u re 4 an d Ta b le 1 : 2-tert-butyl-6-methylphenol (B MP ) and linalyl formate (LF) . These compounds were tested for antagonist activity against odorant activation of three ORs from Anopheles gambiae (Agam\Or28 + Agam\Orco, Agam\Or39 + A ga m\Orco, Agam\Or65 + A ga m\Orco), o ne O R fro m Culex quinquefasciatus, the southern house mosquito (Cq u i\Or21 + Cqui\Orco) an d on e O R f ro m Drosophila melanogaster (Dme l\Or35a + Dmel\Orco). Each OR was activated by its cognate odorant agonist applied at an approximate EC50 concentration. […]
(§5) SEM (n = 4). […] Statistical significance of the data in each panel was assessed by one-way analysis of variance followed by Dunnett’s multiple comparison test using the pre-normalized values for each antagonist compared to the values obtained in the sham recordings (*, p < 0 .0 5; **, p < 0. 01; ***, p < 0 . 00 1 ).

Agam\Or39 + Agam\Orco = target: T1, Agam\Or39 + Agam\Orco (Anopheles gambiae, UniProt Q7QCC7); assay: Inhibition of heteromeric OR in oocytes (6-methyl-5-hepten-2-one activation); format: cell-based; details: 100 µM antagonist; 10 µM 6-methyl-5-hepten-2-one
T1 construct: expressed in transfected cells; host or cells: Xenopus laevis oocytes
T1 sequence (Q7QCC7 1-478): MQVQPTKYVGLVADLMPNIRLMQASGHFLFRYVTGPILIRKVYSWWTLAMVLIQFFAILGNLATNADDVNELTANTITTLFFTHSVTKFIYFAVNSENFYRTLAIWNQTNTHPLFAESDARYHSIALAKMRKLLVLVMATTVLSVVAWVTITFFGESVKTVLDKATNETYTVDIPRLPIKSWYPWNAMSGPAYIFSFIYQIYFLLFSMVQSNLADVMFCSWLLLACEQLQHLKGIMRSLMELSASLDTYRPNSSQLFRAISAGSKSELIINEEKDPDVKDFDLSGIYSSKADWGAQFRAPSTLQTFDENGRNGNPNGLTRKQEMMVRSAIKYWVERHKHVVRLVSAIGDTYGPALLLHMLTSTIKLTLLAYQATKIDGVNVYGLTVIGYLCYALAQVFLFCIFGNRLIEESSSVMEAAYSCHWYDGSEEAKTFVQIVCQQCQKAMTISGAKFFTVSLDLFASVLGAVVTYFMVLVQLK
Protocol: as §1, §2, §3
heteromeric complexes of odorant specificity subunits and Orco. The Orco antagonists tested were 3-isopropyl-6-methyl-catechol (3 I6 MC), a potent compound from the input training set, and two compounds id e ntified in Fig u re 4 an d Ta b le 1 : 2-tert-butyl-6-methylphenol (B MP ) and linalyl formate (LF) . […]
Statistical significance of the data in each panel was assessed by one-way analysis of variance followed by Dunnett’s […]

Dmel\Or35a + Dmel\Orco = target: T2, Dmel\Or35a + Dmel\Orco (Drosophila melanogaster, UniProt Q9VNB5); assay: Inhibition of heteromeric OR in oocytes (hexanol or OLC12 activation); format: cell-based; details: for inhibition of odorant activation: 100 µM antagonist, 1 µM hexanol; for antagonism of OLC12 (Orco agonist) activation of heteromeric OR: 100 or 300 µM antagonist, 10 µM OLC12
T2 construct: expressed in transfected cells; host or cells: Xenopus laevis oocytes
T2 sequence (Q9VNB5 1-486): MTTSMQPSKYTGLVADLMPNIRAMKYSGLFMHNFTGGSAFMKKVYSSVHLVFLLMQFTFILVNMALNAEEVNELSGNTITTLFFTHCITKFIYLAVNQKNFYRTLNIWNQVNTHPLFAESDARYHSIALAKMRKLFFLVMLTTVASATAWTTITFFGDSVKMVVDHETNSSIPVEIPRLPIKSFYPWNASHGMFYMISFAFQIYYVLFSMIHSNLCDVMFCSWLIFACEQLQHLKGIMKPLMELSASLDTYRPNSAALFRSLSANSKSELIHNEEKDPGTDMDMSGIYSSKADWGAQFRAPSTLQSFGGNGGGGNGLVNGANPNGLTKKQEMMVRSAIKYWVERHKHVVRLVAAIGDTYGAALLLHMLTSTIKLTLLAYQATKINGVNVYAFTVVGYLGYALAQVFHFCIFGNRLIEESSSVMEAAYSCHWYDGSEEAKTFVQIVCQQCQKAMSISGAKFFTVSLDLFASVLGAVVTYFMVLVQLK
T2 sequence (Q9V3Q2 1-409 partner): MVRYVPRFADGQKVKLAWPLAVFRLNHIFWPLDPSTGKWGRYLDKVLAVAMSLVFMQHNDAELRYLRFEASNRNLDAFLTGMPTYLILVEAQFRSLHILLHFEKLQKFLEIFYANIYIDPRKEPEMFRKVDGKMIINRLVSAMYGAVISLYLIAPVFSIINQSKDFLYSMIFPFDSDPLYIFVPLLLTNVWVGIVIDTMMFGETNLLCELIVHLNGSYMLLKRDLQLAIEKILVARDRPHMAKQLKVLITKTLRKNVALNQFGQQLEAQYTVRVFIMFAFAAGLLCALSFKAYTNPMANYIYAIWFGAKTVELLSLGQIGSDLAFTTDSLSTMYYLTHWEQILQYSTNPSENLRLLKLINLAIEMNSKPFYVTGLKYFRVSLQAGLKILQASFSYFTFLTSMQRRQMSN
Protocol: as §1, §2, §3, §4, §5

Row | Structure (SMILES) | inhibition of odorant activation (Cqui\Or21 + Cqui\Orco) | antagonism of OLC12 (Orco agonist) activation of heteromeric OR (Cqui\Or21 + Cqui\Orco) | inhibition of odorant activation (Agam\Or39 + Agam\Orco) | inhibition of odorant activation (Dmel\Or35a + Dmel\Orco) | antagonism of OLC12 (Orco agonist) activation of heteromeric OR (Dmel\Or35a + Dmel\Orco)
1 | C=CC(C)(CCC=C(C)C)OC=O (stereo not drawn) [LF, linalyl formate] | able to inhibit odorant activation | able to antagonize OLC12 | able to inhibit odorant activation | able to inhibit odorant activation | able to antagonize OLC12
2 | Cc1ccc(C(C)C)c(O)c1O [3I6MC, 3-isopropyl-6-methyl catechol] | could inhibit odorant activation | could antagonize OLC12 | could inhibit odorant activation | could inhibit odorant activation | could antagonize OLC12
3 | Cc1cccc(C(C)(C)C)c1O [BMP, 2-tert-butyl-6-methylphenol] | able to inhibit odorant activation | able to antagonize OLC12 | able to inhibit odorant activation | able to inhibit odorant activation | able to antagonize OLC12
